Source: the NIST ThermoML archive (doi:10.1016/j.jct.2006.10.017)

Experiments:
[1] = refractive index (Na D-line) (dimensionless); xn = mol fraction of the nth substance listed; details: 101 kPa, Liquid
[2] = xn = mol fraction of the nth substance listed; details: 101 kPa, Liquid

COS(=O)(=O)[O-].Cn1cc[n+](C)c1 [1,3-dimethylimidazolium methylsulfate] + CCO
Details	mass density, 293.15 K [kg/m3]	mass density, 298.15 K [kg/m3]	mass density, 303.15 K [kg/m3]	refractive index, 293.15 K	refractive index, 298.15 K	refractive index, 303.15 K	speed of sound, 293.15 K [m/s]	speed of sound, 298.15 K [m/s]	speed of sound, 303.15 K [m/s]
[1], x1 = 0.0738	–	–	–	1.3881	1.38734	1.38689	–	–	–
[1], x1 = 0.1356	–	–	–	1.40426	1.40398	1.40322	–	–	–
[1], x1 = 0.2275	–	–	–	1.42272	1.42173	1.42109	–	–	–
[1], x1 = 0.3317	–	–	–	1.43794	1.43648	1.4356	–	–	–
[1], x1 = 0.429	–	–	–	1.44915	1.44761	1.44677	–	–	–
[1], x1 = 0.5395	–	–	–	1.45944	1.45819	1.45699	–	–	–
[1], x1 = 0.6331	–	–	–	1.4665	1.4651	1.46385	–	–	–
[1], x1 = 0.7308	–	–	–	1.472	1.47068	1.4694	–	–	–
[1], x1 = 0.8142	–	–	–	1.47624	1.47489	1.47353	–	–	–
[1], x1 = 0.9081	–	–	–	1.48029	1.47895	1.47763	–	–	–
[1], x1 = 0.9512	–	–	–	1.48211	1.48079	1.47949	–	–	–
[1], x1 = 1	–	–	–	1.48392	1.4827	1.48129	–	–	–
[2], x1 = 0.0738	891.5	887.4	883.3	–	–	–	1241	1226	1211
[2], x1 = 0.1356	959.7	955.7	951.7	–	–	–	1305	1291	1277
[2], x1 = 0.2275	1040.6	1036.7	1032.8	–	–	–	1396	1383	1370
[2], x1 = 0.3317	1111.6	1107.8	1104	–	–	–	1490	1477	1465
[2], x1 = 0.429	1163.9	1160.2	1156.5	–	–	–	1568	1555	1542
[2], x1 = 0.5395	1211.1	1207.5	1203.8	–	–	–	1642	1629	1617
[2], x1 = 0.6331	1243.6	1239.9	1236.3	–	–	–	1693	1681	1668
[2], x1 = 0.7308	1272	1268.4	1264.8	–	–	–	1737	1725	1713
[2], x1 = 0.8142	1293	1289.3	1285.7	–	–	–	1769	1757	1745
[2], x1 = 0.9081	1313.3	1309.7	1306.1	–	–	–	1800	1787	1775
[2], x1 = 0.9512	1321.7	1318.1	1314.5	–	–	–	1812	1800	1788
[2], x1 = 1	1330.9	1327.2	1323.7	–	–	–	1826	1813	1801
